Results published in paper PMC6013238, “Development of novel NEMO-binding domain mimetics for inhibiting IKK/NF-κB activation” (PLoS Biology, 2018).

Tests used:
IKKβ/NEMO interaction = molecular target: T1, IKKβ/NEMO interaction (Mus musculus, UniProt O88522); test: Co-immunoprecipitation of endogenous IKKβ and NEMO in Raw 264.7 cells; type: cell-based; details: 100 μM mimetics, 8K-NBD 400 μM, 30 min
T1 construct: Co-immunoprecipitation of endogenous IKKβ and NEMO; endogenous in cells; host or cells: Raw 264.7
Procedure: To determine whether the novel NBD mimetics target the NEMO-IKKβ interaction in vivo, co-immunoprecipitations were performed using extracts from Raw 264.7 macrophages (Fig 5A). […] No interaction between NEMO and TNF receptor-associated factor 2 (TRAF2) or IκBα was observed under these conditions. […] The levels of phosphorylated IKK complex, IκBα, and p65 in response to TNF-α and LPS were all reduced by SR12343 (Fig 5D & 5E). […] However, there were no changes in the levels of phospho-c-Jun N-terminal kinase (p-JNK), p-p38MAPK, total JNK, and p38MAPK by treatment with SR12343 (150 μM) in response to TNF-α or LPS stimulation (Fig 5G & 5H). […]
(A) Co-IP analysis detecting the IKKβ/NEMO interaction. […] NEMO-binding products were then analyzed for levels of IKKβ, IKKα, TRAF2, and IκBα (negative control), and levels of NEMO were used as a loading control (left panel). […] The levels of IKKβ-FLAG binding to GST-NEMO were determined by western blot analysis with GST-NEMO used as a loading control. […] Cell lysates were analyzed for activity of the IKK/NF-κB signaling pathway including activation of IKK complex, IκBα, and p65. […] Cell lysates were harvested and analyzed for activation of noncanonical NF-κB signaling, the processing of p100 to p52. […]

Ercc1−/Δ mice = test: Chronic treatment of Ercc1−/Δ mice (health span); type: in vivo, mouse; details: preliminary experiments
Description: Thus, these novel NBD mimetics could be used not only for treatment of inflammatory and degenerative diseases but also for aging.

T1 sequence (O88522 whole entry): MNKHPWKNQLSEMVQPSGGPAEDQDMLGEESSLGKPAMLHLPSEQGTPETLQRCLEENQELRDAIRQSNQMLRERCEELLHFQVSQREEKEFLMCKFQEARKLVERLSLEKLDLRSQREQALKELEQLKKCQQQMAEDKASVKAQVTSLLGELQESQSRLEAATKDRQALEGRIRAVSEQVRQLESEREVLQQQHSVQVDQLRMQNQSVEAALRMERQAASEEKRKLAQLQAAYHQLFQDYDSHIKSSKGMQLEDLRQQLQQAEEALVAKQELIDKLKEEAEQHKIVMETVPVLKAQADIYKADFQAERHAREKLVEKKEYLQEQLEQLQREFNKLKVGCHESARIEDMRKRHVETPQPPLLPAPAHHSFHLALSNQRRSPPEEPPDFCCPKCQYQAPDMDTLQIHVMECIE

Q: For `O=C(CNc1ccc(Cl)cn1)NCCc1cccc(Br)c1` [SR12343], which “IKKβ-NEMO interaction (Co-IP)” value (IKKβ/NEMO interaction) is on record?
A: most effective

Q: What about the Health span (Ercc1−/Δ mice) of the same compound?
A: extended health span
